Source: patent US8124793B2, “Derivatives of ethylene methanedisulfonate as cancer chemotherapeutic agents” (priority 2007, dated 2012)

How the values were obtained:
Type in all cases: cell-based
human cancer cells = test: NCI screen summary over the cancers tested (negative growth of human cancer cells); settings: cancers with negative growth / cancers tested
Experimental: (§1) In the NCI screening process, each compound was tested and described by a minimum of 60 data points. The test data include, but are not limited to the type of cancer, the molar concentration used in the screen, and the percent growth of the cancer. In some cases, NMR and elemental analysis were used for structural assignment.
The derivatives in the tables are grouped using the same category as in the tables 1-6.

EKVX = test: NCI screen, growth of human tumor cells: Non-Small Cell Lung EKVX; settings: EKVX
Experimental: as §1

HOP-18 = test: NCI screen, growth of human tumor cells: Non-Small Cell Lung HOP-18
Experimental: as §1

NCI-H226 = test: NCI screen, growth of human tumor cells: Non-Small Cell Lung NCI-H226
Experimental: as §1

HOP-62 = test: NCI screen, growth of human tumor cells: Non-Small Cell Lung HOP-62; settings: HOP-62 (Non-Small Cell Lung), 10^−4 molar
Experimental: as §1

SR = test: NCI screen, growth of human tumor cells: Leukemia SR; settings: for percent of growth of human tumor cells: SR (Leukemia); for % Growth: SR
Experimental: as §1

KM12 = test: NCI screen, growth of human tumor cells: Colon Cancer KM12
Experimental: as §1

SK-MEL-2 = test: NCI screen, growth of human tumor cells: Melanoma SK-MEL-2; settings: SK-MEL-2 (Melanoma), 10^−4 molar
Experimental: as §1

SF-295 = test: NCI screen, growth of human tumor cells: CNS Cancer SF-295
Experimental: as §1

CCRF-CEM = test: NCI screen, growth of human tumor cells: Leukemia CCRF-CEM; settings: for % Growth: CCRF-CEM
Experimental: as §1

MOLT-4 = test: NCI screen, growth of human tumor cells: Leukemia MOLT-4; settings: for percent of growth of human tumor cells: MOLT-4 (Leukemia), 10^−4 molar
Experimental: as §1

NCI-H460 = test: NCI screen, growth of human tumor cells: Non-Small Cell Lung NCI-H460; settings: NCI-H460 (Non-Small Cell Lung), 10^−4 molar
Experimental: as §1

SNB-75 = test: NCI screen, growth of human tumor cells: CNS Cancer SNB-75; settings: SNB-75 (CNS Cancer), 10^−4 molar
Experimental: as §1

ACHN = test: NCI screen, growth of human tumor cells: Renal Cancer ACHN; settings: ACHN (Renal Cancer), 10^−4 molar
Experimental: as §1

NCI-H522 = test: NCI screen, growth of human tumor cells: Non-Small Cell Lung NCI-H522; settings: NCI-H522 (Non-Small Cell Lung), 10^−4 molar
Experimental: as §1

HCT-15 = test: NCI screen, growth of human tumor cells: Colon Cancer HCT-15; settings: HCT-15 (Colon Cancer), 10^−4 molar
Experimental: as §1

SF-539 = test: NCI screen, growth of human tumor cells: CNS Cancer SF-539; settings: for percent of growth of human tumor cells: SF-539 (CNS Cancer), 10^−4 molar
Experimental: as §1

HOP-92 = test: NCI screen, growth of human tumor cells: Non-Small Cell Lung HOP-92; settings: HOP-92 (Non-Small Cell Lung), 10^−4 molar
Experimental: as §1

SK-MEL-5 = test: NCI screen, growth of human tumor cells: Melanoma SK-MEL-5; settings: SK-MEL-5, 10^−4 molar
Experimental: as §1

K562 = test: NCI screen, growth of human tumor cells: Leukemia K562
Experimental: as §1

C[Si](C)(OCCS(=O)(=O)[O-])C(=C1S(=O)(=O)OCCOS1(=O)=O)c1cccc2ccccc12.[Na+] [MWC 95-8]
Percentage of cancers showing negative growth cancers tested (human cancer cells; 10^−4 M conc.): 10^−4 M conc. = 0/1 = 0%

Cc1ccc(S(=O)(=O)NC(=O)C2S(=O)(=O)OCCOS2(=O)=O)cc1 [NSC 648303, ethylene(4-methylbenzenesulfonamidocarbonyl)methanedisulfonate]
% Growth (EKVX; 10^−4 molar): 59%
% Growth (EKVX; 10^−5 molar): 66%
% Growth (EKVX; 10^−6 molar): 69%
% Growth (EKVX; 10^−7 molar): 67%
% Growth (EKVX; 10^−8 molar): 57%
% Growth (HOP-18; HOP-18, 10^−4 molar): 69%
% Growth (HOP-18; HOP-18, 10^−5 molar): 43%
% Growth (HOP-18; HOP-18, 10^−6 molar): 39%
% Growth (HOP-18; HOP-18, 10^−7 molar): 33%
% Growth (HOP-18; HOP-18, 10^−8 molar): 31%
% Growth (NCI-H226; NCI-H226, 10^−4 molar): 16%
% Growth (NCI-H226; NCI-H226, 10^−5 molar): 37%
% Growth (NCI-H226; NCI-H226, 10^−6 molar): 51%
% Growth (NCI-H226; NCI-H226, 10^−7 molar): 55%
% Growth (NCI-H226; NCI-H226, 10^−8 molar): 53%
Percentage of cancers showing negative growth cancers tested (human cancer cells; 10^−4 M conc.): 10^−4 M conc. = 0/3 = 0%

COC(=O)/C=C(\C(=O)OC)C1C(=O)Oc2c(C)c(=O)c3ccccc3n21 (stereo not drawn) [NSC 670993]
percent of growth of human tumor cells (HOP-62): −53%

CCCCCCCCOCC1S(=O)(=O)OCCOS1(=O)=O [NSC 671535]
percent of growth of human tumor cells (SR; 10^−4 molar): 5%
Percentage of cancers showing negative growth cancers tested (human cancer cells; 10^−4 M conc.): 10^−4 M conc. = 0/1 = 0%

O=C1c2ccccc2C(=O)N1CC1S(=O)(=O)OCCOS1(=O)=O [NSC 671536]
percent of growth of human tumor cells (SR; 10^−4 molar): 15%
% Growth (KM12; KM12, 10^−4 molar): 50%
% Growth (KM12; KM12, 10^−5 molar): 42%
% Growth (KM12; KM12, 10^−6 molar): 39%
% Growth (KM12; KM12, 10^−7 molar): 59%
% Growth (KM12; KM12, 10^−8 molar): 40%
Percentage of cancers showing negative growth cancers tested (human cancer cells; 10^−4 M conc.): 10^−4 M conc. = 0/2 = 0%

O=C(O)c1ccccc1C(=O)NCC1S(=O)(=O)OCCOS1(=O)=O [NSC 671537, ethylene (2-carboxy-benzoyl)-N-2-ethane-1,1-disulfonate]
% Growth (KM12; KM12, 10^−4 molar): 62%
% Growth (KM12; KM12, 10^−5 molar): 54%
% Growth (KM12; KM12, 10^−6 molar): 45%
% Growth (KM12; KM12, 10^−7 molar): 61%
% Growth (KM12; KM12, 10^−8 molar): 41%
Percentage of cancers showing negative growth cancers tested (human cancer cells; 10^−4 M conc.): 10^−4 M conc. = 0/1 = 0%

CN(C)C(=N)N=C(N)N.CS(C)=O.[Cl][Pt][Cl] [NSC 671543]
percent of growth of human tumor cells (SK-MEL-2): 30%

O=C(c1ccc2ccccc2c1)C1(I)S(=O)(=O)OCCOS1(=O)=O [NSC 679046]
% Growth (SF-295; SF-295, 10^−4 molar): −52%
% Growth (SF-295; SF-295, 10^−5 molar): −58%
% Growth (SF-295; SF-295, 10^−6 molar): −65%
% Growth (SF-295; SF-295, 10^−7 molar): −56%
% Growth (SF-295; SF-295, 10^−8 molar): 51%
Percentage of cancers showing negative growth cancers tested (human cancer cells; 10^−4 M conc.): 100%
Percentage of cancers showing negative growth cancers tested (human cancer cells; 10^−5 M conc.): 100%
Percentage of cancers showing negative growth cancers tested (human cancer cells; 10^−6 M conc.): 100%
Percentage of cancers showing negative growth cancers tested (human cancer cells; 10^−7 M conc.): 100%
Percentage of cancers showing negative growth cancers tested (human cancer cells; 10^−8 M conc.): 0%

O=S1(=O)OCCOS(=O)(=O)C1=NNc1c(O)cc(S(=O)(=O)O)c2ccccc12 [NSC 686564]
percent of growth of human tumor cells (CCRF-CEM; CCRF-CEM (Leukemia), 10^−4 molar): 14%
percent of growth of human tumor cells (MOLT-4): 23%
percent of growth of human tumor cells (NCI-H460): 6%
percent of growth of human tumor cells (SNB-75): 7%
percent of growth of human tumor cells (ACHN): 26%
Percentage of cancers showing negative growth cancers tested (human cancer cells; 10^−4 M conc.): 10^−4 M conc. = 0/5 = 0%

O=S1(=O)OCCOS(=O)(=O)C1c1nc(Cl)c(Cl)nc1Cl [NSC 720685]
percent of growth of human tumor cells (MOLT-4): 24%
percent of growth of human tumor cells (NCI-H522): −22%
percent of growth of human tumor cells (HCT-15): 7%
percent of growth of human tumor cells (SF-539): 7%
Percentage of cancers showing negative growth cancers tested (human cancer cells; 10^−4 M conc.): 10^−4 M conc. = 1/4 = 25%

CSC(=NC(=O)c1cn([C@H]2O[C@H](COC(C)=O)[C@H]3OC(C)(C)O[C@H]32)c2ccccc12)SC [NSC 732264]
percent of growth of human tumor cells (HOP-92): 22%

O=S1(=O)OCCCOS(=O)(=O)C1(Br)Br [compound 665940]
% Growth (SF-539; SF-539, 10^−4 molar): 63%
% Growth (SF-539; SF-539, 10^−5 molar): 99%
% Growth (SF-539; SF-539, 10^−6 molar): 43%
% Growth (SF-539; SF-539, 10^−7 molar): 62%
% Growth (SF-539; SF-539, 10^−8 molar): 47%

CC(=O)O[C@H]1CC[C@]2(C)C3C(=O)C[C@]4(C)[C@@H](C(C)=O)CC[C@@]4(C)[C@@H]3CC[C@H]2C1(C)C (stereo partly drawn) [compound 731278]
% Growth (SK-MEL-5): −78%

ethylene 2-hydroxy-2-solketalyl-ethylene-1,1-disulfonate [NSC 698123]
% Growth (CCRF-CEM; 10^−4 molar): 32%
% Growth (CCRF-CEM; 10^−5 molar): 58%
% Growth (CCRF-CEM; 10^−6 molar): 57%
% Growth (K562; K562, 10^−4 molar): 63%
% Growth (K562; K562, 10^−5 molar): 41%
% Growth (SF-539; SF-539, 10^−4 molar): 42%
% Growth (SF-539; SF-539, 10^−5 molar): 50%
Percentage of cancers showing negative growth cancers tested (human cancer cells; 10^−4 M conc.): 10^−4 M conc. = 0/3 = 0%

ethylene (2-methyl-2-acetyl)-ethylene-1,1-disulfonate [NSC 698121]
% Growth (CCRF-CEM; 10^−4 molar): 18%
% Growth (CCRF-CEM; 10^−5 molar): 51%
% Growth (CCRF-CEM; 10^−6 molar): 61%
% Growth (CCRF-CEM; 10^−7 molar): 68%
% Growth (K562; K562, 10^−4 molar): 54%
% Growth (K562; K562, 10^−5 molar): 59%
% Growth (K562; K562, 10^−6 molar): 54%
% Growth (K562; K562, 10^−7 molar): 52%
% Growth (MOLT-4; MOLT-4, 10^−4 molar): (85) %
% Growth (MOLT-4; MOLT-4, 10^−5 molar): 46%
% Growth (SR; 10^−4 molar): 60%
% Growth (SR; 10^−5 molar): 31%
percent of growth of human tumor cells (NCI-H460): 12%
percent of growth of human tumor cells (SF-295; SF-295 (CNS Cancer), 10^−4 molar): 24%
percent of growth of human tumor cells (SF-539): 18%
percent of growth of human tumor cells (ACHN): 29%
Percentage of cancers showing negative growth cancers tested (human cancer cells; 10^−4 M conc.): 10^−4 M conc. = 1/8 = 0%
